In series [1] the test system is CYP3A4. Particulars: cited from earlier work.
The nature of series [2]: Steady state Ruxolitinib trough serum concentrations in GvHD patients in clinical routine (LC-MS/MS). In kind it is in vivo, human. The source says:
Patients were enrolled in a noninterventional prospective clinical trial at the University Hospital of Würzburg between February 2019 and February 2021. The study was approved by the Ethics Commission of the University of Würzburg (ref 199/18-am). All performed procedures were in accordance with the Declaration of Helsinki. Written informed consent was obtained from all patients. […] After enrollment blood samples and patient data were collected regularly during routine outpatient visits for 1 year. Treatment was managed at the discretion of the treating physician.
Serum samples were collected at each outpatient visit during routine blood withdrawal. Patients were asked to take Ruxolitinib after blood withdrawal. Date and time of last administration and blood withdrawal were recorded. Samples obtained at least 48 h after initiation or modification of therapy were considered steady state samples [27]. Samples obtained between eight and 30 h after last administration (depending on dosing scheme) were considered trough levels.
In brief, after protein precipitation with acetonitrile separation was achieved on a Waters XBridge Phenyl 3.5 µm (2.1 × 50 mm) column using gradient elution (flow rate 400 μL/min). […] Lower level of quantification (LLOQ) of the method was 2 ng/mL. Concentrations < LLOQ were excluded from further statistical analysis but included as censored data (between 0 ng/mL and LLOQ) in the popPK analysis.
(§1) Data were collected and processed using Microsoft Excel 2016 Version 16.0 (Microsoft Corporation, Redmond, WA, USA). Statistical calculations and visualization of results were performed with R Studio Version 1.2.5042 (RStudio Incorporation, Boston, MA, USA) and running R version 4.0.5 (R Foundation for Statistical Computing, Vienna, Austria, 2020). […] To fully display the degree of variability, concentrations were also summarized across all patients, stratified by dosing scheme. Pairwise comparisons were performed using Wilcoxon rank-sum test. Wilcoxon-signed-rank test was used for […] samples. For comparisons between more than two groups the Kruskal–Wallis one-way analysis of variance combined with Dunn’s test post hoc was used. Spearman’s correlation was used for analysis of AE. Logistic regression followed by receiver operator characteristic (ROC) analysis was used to evaluate the risk for the occurrence of AE of any grade or type on a visit in relation to the corresponding trough concentration on that visit. Due to the explorative nature of the study, p values obtained from multiple comparisons were not corrected for multiple testing. A p value < 0.05 was considered statistically significant. A Spearman’s rho (ρ) correlation was defined as follows: 0 to 0.3 or 0 to −0.3, weak; 0.3 to 0.7 or −0.3 to −0.7, moderate and 0.7 to 1 or −0.7 to −1, strong.

A short description of series [3]: Exploratory population pharmacokinetic (popPK) analysis in GvHD patients. In kind it is in vivo, human. The conditions noted are these: for RUV b (residual unexplained variability, proportional error) / ωCL/F (inter-individual variability on CL/F) / ωV (inter-individual variability on Vc/F): as standard deviation of normal distribution. The method, then:
An exploratory popPK analysis was conducted to identify relevant covariates influencing drug exposure, to predict the influence of strong CYP3A4 or CYP2C9 inhibitors or PPI and to generate population estimates for apparent oral clearance (CL/F) and apparent central volume of distribution (Vc/F) as classical statistical analysis was not suitable due to the unbalanced number of samples per patient. The analysis was conducted on the individual raw data (as opposed to the descriptive statistics) using Monolix 2020R1 (Antony, France: Lixoft SAS, 2020) and was based on a previously published popPK model by Chen et al. investigating pharmacokinetics in patients with primary and secondary myelofibrosis (MF).
Oral pharmacokinetics were described by a two-compartment model using first order absorption with lag time and linear elimination from the first compartment only. The population mean values for CL/F and Vc/F were re-estimated using the SAEM algorithm implemented in Monolix. The remaining parameters, except for the covariate model, were fixed to the original values. As in the original model, all pharmacokinetic parameters were assumed to be log-normally distributed. Dichotomous categorical covariates, were implemented as follows:1 logCL/Ftypical=logCL/Fpop+β^COV with COV being 0 or 1 encoding for the presence or absence of covariate effect.
Continuous covariates were scaled to the population mean values using the following exponential relationship:2 logCL/Ftypical=logCL/Fpop+β∙COV with COV being the value of individual covariate, e.g., scaled eGFR = eGFR/70.2.
Inter-individual variability (η) was implemented for CL/F and Vc/F according to: 3 logCL/Find=logCL/Ftypical+ηind,CLFwithηCL/F∼N0,ωCL/F2logVc/Find=logVc/Ftypical+ηind,Vc/FwithηVc/F∼N0,ωVc/F2
Residual unexplained variability (RUV) was modeled using a proportional error model represented by the parameter b and the following equation:4 Concobs=Concpred∙1+ϵwithϵ∼N(0,b^2)
A stepwise approach was used to develop the covariate model. Covariate effects were assessed using the Wald test and by comparing objective function values (OFV, which is the −2-log-likelihood) and derived descriptors such as Bayesian Information Criteria (BIC), corrected Bayesian Information Criteria (cBIC), and Akaike Information Criteria (AIC). The criterion for forward inclusion was an improvement of the OFV (p ≤ 0.1). In the backward elimination, a limit for the p value of < 0.05 was applied. The following covariates were tested: the presence of strong or moderate CYP3A4 or CYP2C9 inhibitors on CL/F, the presence of PPI on F (as relative bioavailability), aspartate aminotransferase (AST) on CL/F, total body weight on Vc/F, eGFR on CL/F, sex on CL/F, and smoking habit on CL/F.

Series [4] in a line: Observed concentrations versus concentrations simulated with Chen et al.'s popPK model for myelofibrosis patients. Details: species or system human. Particulars: simulated with Chen et al.'s MF model, lower than observed. The source says: The model published by Chen et al. was also encoded in R using the mrgsolve package for R [30]. Applying patient covariates and dosing schemes, the model was used to predict every observed concentration of every patient included in our study based on individual patient covariates and dosing data.

The nature of series [5]: Clinical and laboratory adverse events (CTCAE v5.0) in relation to Ruxolitinib trough serum concentration. Type of series: in vivo, human. The conditions noted are these: for Mean trough concentration in group: logistic regression on at least three AE. The method, then: Adverse events (AE) were registered by questioning patients at each sampling time point. Patients were specifically asked for AE occurring in ≥ 1/100 patients according to the prescribing information. Clinical AE were graded according to the […] (CTCAE) Version 5.0 [26]. Further recorded patient data included age, sex, height, weight, ethnicity, smoking status, dosing regimen, and comedication. Relevant laboratory parameters were recorded in parallel to blood sampling (estimated glomerular filtration rate (eGFR), serum creatinine, serum albumin, total cholesterol, total bilirubin, hemoglobin, white blood cell count, absolute neutrophil count, platelet count, aspartate, and alanine aminotransferase).
as §1

Details of series [6]: method as in Chen et al., J Clin Pharmacol. 2013;53(7):721-30. The conditions noted are these: fixed, ref Chen et al., J Clin Pharmacol. 2013;53(7):721-30, cited from earlier work.
For series [7] the following is noted: cited from earlier work.
The mark [8] stands for this setting: daily dose 5-< 20 mg, 51 samples.
[9] abbreviates: daily dose > 20-40 mg, 3 samples.
The mark [10] stands for this setting: popPK analysis in patients with aGvHD.

Like-named read-outs stand apart in the source and are kept apart here. A value given as a limit tells only on which side of the number the result lay.

On to `CC[C@H]1OC(=O)[C@H](C)[C@@H](O[C@H]2C[C@@](C)(OC)[C@@H](O)[C@H](C)O2)[C@H](C)[C@@H](O[C@@H]2O[C@H](C)C[C@H](N(C)C)[C@H]2O)[C@](C)(O)C[C@@H](C)CN(C)[C@H](C)[C@@H](O)[C@]1(C)O` [Azithromycin], for which the “CYP3A4 (inhibitor / inducer)” value in series [1] is “inhibitor”.

On to `CN(C)C(=O)C(CCN1CCC(O)(c2ccc(Cl)cc2)CC1)(c1ccccc1)c1ccccc1` [Loperamide], for which, in series [1], the “CYP3A4 (inhibitor / inducer)” value is listed as “inhibitor” and the “CYP3A4 Strength” value is given as “strong”.

For `C=C[C@H]1C[N@@]2CC[C@H]1C[C@H]2[C@H](O)c1ccnc2ccc(OC)cc12` [Quinine], the “CYP3A4 (inhibitor / inducer)” value in series [1] is reported as “inducer / inhibitor”.

For the molecule `N#CC[C@H](C1CCCC1)n1cc(-c2ncnc3[nH]ccc23)cn1` [Ruxolitinib], in series [2] (5 mg daily, 3 of 4 samples < LLOQ (2 ng/mL)), the “All trough serum concentrations at 5 mg daily” value was “^aAll trough serum concentrations at 5 mg daily were ≤ 2.17 ng/mL (3 of 4 samples < LLOQ)”. In addition, the “Range of individual mean trough serum concentrations” value was in the range of 5.6 to 99.8 ng/mL in series [2] (20 mg daily, n = 20 individuals) and 7.7 to 46.8 ng/mL in series [2] (5-< 20 mg daily, n = 8 individuals). The “Median of individual mean trough serum concentrations” value in series [2] (20 mg daily, patients not requiring AE-related dose reduction, n = 18) stood at 39.8 ng/mL; in series [2] (20 mg daily, patients who had dose reductions for AE, before reduction, n = 4), 60.6 ng/mL; in series [2] (20 mg daily, steady state, n = 20 individuals) it was 39.9 ng/mL; in series [2] (5-< 20 mg daily, steady state, n = 8 individuals), 26.2 ng/mL; in series [2] (> 20-40 mg daily, steady state, n = 2 individuals), 15 ng/mL. Moreover, the “Steady state trough serum concentration of all samples across all individuals, Median” value in series [2] (daily dose 20 mg, 120 samples) is listed as 40.5 ng/mL; in series [2] (setting [8]), 17.5 ng/mL; in series [2] (setting [9]), 25.1 ng/mL; in series [2] (daily dose: All, 174 samples), 31.4 ng/mL. Besides, the “Steady state trough serum concentration of all samples across all individuals, Range” value was in the range of 2.7 to 229 ng/mL in series [2] (daily dose 20 mg, 120 samples); 2.2 to 155 ng/mL in series [2] (setting [8]); 4.3 to 28.5 ng/mL in series [2] (setting [9]); 2.2 to 229 ng/mL in series [2] (daily dose: All, 174 samples). The “Median of mean trough concentrations” value in series [2] (patients with AE-related dose reduction, after dose reduction, n = 4) came to 28.4 ng/mL. The “Trough concentrations under dual CYP inhibition” value in series [2] (two patients receiving Posaconazole plus Atorvastatin or Amiodarone, mostly above this value) is greater than 80 ng/mL. For the same molecule, the “CL/F, population mean” value in series [3] (base model) was 8.55 L/h. For the same molecule, the results for the “Vc/F, population mean” value in series [3] (base model) and in series [3] (covariate model) were 64.8 L and 61.9 L, respectively. For the same molecule, the “RUV b (residual unexplained variability, proportional error)” value in series [3] (base model) and in series [3] (covariate model) was 0.50 each time. Also, the results for the “ωCL/F (inter-individual variability on CL/F)” value in series [3] (base model) and in series [3] (covariate model) were 0.52 and 0.48, respectively. The “ωV (inter-individual variability on Vc/F)” value is reported as 0.25 in series [3] (base model) and 0.29 in series [3] (covariate model). The “Reduction of CL/F due to coadministration of at least one strong CYP3A4 or CYP2C9 inhibitor” value in series [3] (compared to study patients not receiving relevant strong inhibitors, back transformation of β) is recorded as 15%. Moreover, in series [3] (covariate model), the “βCL, STRONG_INH (covariate effect of strong CYP3A4 or CYP2C9 inhibitors on CL/F)” value is reported as -0.16. Moreover, the “CL/F, population mean (typical CL/F)” value in series [3] (covariate model including strong CYP inhibitors as covariate) is recorded as 9.74 L/h. In addition, the “Share of inter-individual variability on CL/F explained by strong CYP3A4 or CYP2C9 inhibitors” value in series [3] (covariate model vs base model) was “about 4%”. Also, the “Effect of simultaneous administration of PPI on Ruxolitinib exposure” value in series [3] (covariate tested on relative bioavailability) is recorded as “did not affect Ruxolitinib exposure”. In addition, the “Reduction of Ruxolitinib clearance in GvHD population” value in series [3] (in comparison to the population of Chen et al. (patients with MF)) was “approximately 50%”. The “Median paired difference between observed and simulated serum concentrations” value is listed as 64.9 ng/mL in series [4] (non-trough concentrations) and 27.1 ng/mL in series [4] (trough concentrations). Also, in series [5] (29 GvHD patients, all grades), the “Clinical AE reported at the time of blood sampling, total number” value was 302. For the same molecule, the “Clinical AE of grade 1, number” value in series [5] (CTCAE grade 1) was found to be 250. Besides, the “Clinical AE of grade 2, number” value in series [5] (CTCAE grade 2) was 46. Besides, the “Share of all reported clinical AE of grade 3” value in series [5] (CTCAE grade 3) is 2.0%. Moreover, in series [5] (CTCAE grade 4 or 5), the “Clinical AE of grade 4 or 5” value was “no AE of grade 4 or 5”. Besides, the “Average clinical AE reported at each sampling time point” value in series [5] (grade 1) was 0.95; in series [5] (grade 2), 0.18; in series [5] (grade 3), 0.02. Besides, the “Mean trough concentration in group” value in series [5] (first of both groups as printed) worked out at 35.9 ng/mL; in series [5] (second of both groups as printed), 62.8 ng/mL. Further, the “Correlation between trough concentration and occurrence of grade 1 AE on the same visit” value in series [5] (vertigo and cephalgia, p < 0.05) is “significant correlation”. Further, the “Effect of Ruxolitinib exposure on thrombocyte count, absolute neutrophil count and bilirubin” value in series [5] (visual analysis of the data) was “did not reveal obvious effects”. In addition, the “Q/F, population mean” value in series [6] (base model) and in series [6] (covariate model) was 2.53 L/h in each case. In addition, the “TLag, population mean” value in series [6] (base model) and in series [6] (covariate model) was 0.0545 h each time. The “Vper/F, population mean” value in series [6] (base model) and in series [6] (covariate model) was 11.2 L in each case. Further, the “ka, population mean” value in series [6] (base model) and in series [6] (covariate model) was 4.12 h⁻¹ each time. For the same molecule, in series [7] (patients with MF), the “CL/F for a typical female” value is listed as 17.7 L/h. Moreover, the “CL/F for a typical male” value in series [7] (patients with MF) is given as 22.1 L/h. In series [7] (setting [10]), the “Lower oral clearance in comparison to MF patients” value is 66.7%. In addition, the “Slower rate of absorption in comparison to MF patients” value in series [7] (setting [10]) is on record as 28%.

Source of the values: PMC8536600 (Cancer Chemotherapy and Pharmacology, 2021).
